Measurements published in patent publication US6169104A, “Di-aryl ethers and their derivatives as anti-cancer agents” (Large Scale Biology Corporation, priority 1998, dated 2001).

Assays:
Type in all cases: cell-based
[1] = tested on: Ovcar-3 (ovarian); assay: In vitro cytotoxicity screen, alamar Blue assay; conditions: Homo sapiens, 168 h, 7 days post exposure
Method: (§1) Human tumor cell lines were exposed continuously to varying concentrations of test agents, i.e., BTO-956, BTO-964, BTO966 and BTO-967) and the viability of the cells was measured at set time points (1, 3, and 7 days) using the alamar Blue™ assay. […] This fluorescence can be measured with a fluorimeter, whereby the signal is directly proportional to cell number.
(§2) Various tumor cell lines of human origin representing a wide diversity of cancer pheno- and genotypes were exposed in vitro to the agents to evaluate the drug's effective range. Tumor lines screened included MDA MB 231 (breast), MCF-7 (breast), MDA MB 468 (breast), Siha (squamous cell carcinoma), A549 (non-small cell lung), HL-60 (leukemia), Ovcar-3 (ovarian). The test agents were prepared in serial dilutions from 10 mM stock solutions in DMSO yielding a 66-fold dose range of 20 μM, 10 μM, 3 μM, 1 μM and 0.3 μM concentrations. In each case, cells were maintained at 37° C. under 5 percent CO2 in air. All cell lines were incubated in Dulbecco's modified Eagle medium (DMEM) supplemented with 10% heat-inactivated fetal bovine serum and graded doses of BTO-956, 964, 966, or 967. 5-Fluorouracil (5-FU) was included as a positive control in experiments with two of the cell lines. The experiments were conducted in 96-well tissue culture plates (Falcon) with an initial seeding density of 1000 cells per well in 250 μl aliquots. The next day, medium was replaced with 100 μl of drug dilutions in triplicate.
(§3) After a 7 day exposure to the various agents, the alamarBlue dye was diluted to 20% in DMEM, and 100 μl was added to each well. The cells were incubated for 8 hours until obvious color changes indicated sufficient amounts of reduced dye for quantitation. Relative cell number was evaluated by florimetry on a Millipore 2300 CytoFluor fluorescence measurement system. Measurements were taken directly from 96-well plates after excitation at 560 nm with concomitant emission at 590 nm.

[2] = tested on: MDA MB 231 (breast); assay: In vitro cytotoxicity screen, alamar Blue assay; conditions: Homo sapiens, 168 h; MDA MB 231; 7 days post exposure; read-out: IC50
Method: as §1, §2, §3

[3] = tested on: MDA MB 468 (breast); assay: In vitro cytotoxicity screen, alamar Blue assay; conditions: Homo sapiens, 168 h, 7 days post exposure
Method: as §1, §2, §3

[4] = tested on: A549 (non-small cell lung); assay: In vitro cytotoxicity screen, alamar Blue assay; conditions: Homo sapiens, 168 h; A549; 7 days post exposure; read-out: IC50
Method: as §1, §2, §3

[5] = tested on: MCF-7 (breast); assay: In vitro cytotoxicity screen, alamar Blue assay; conditions: Homo sapiens, MCF7, 168 h, 7 days post exposure
Method: as §1, §2, §3

[6] = tested on: Siha (squamous cell carcinoma); assay: In vitro cytotoxicity screen, alamar Blue assay; conditions: Homo sapiens, 168 h, 7 days post exposure
Method: as §1, §2, §3

[7] = tested on: Human leukemia (HL60) cells; assay: In vitro metabolism in human leukemia cells with and without rat liver S9; conditions: for effect of metabolism by S9 on activity: 4 hr incubation with vs without rat liver S9, cells counted 3 days later (FIG. 2)
Method: FIG. 2 illustrates the in vitro metabolism of BTO-956, 964, 966, and 967 in human leukemia cells. In this experiments, human leukemia cells (HL60) were incubated for 4 hours in the presence of BTO-956, BTO-964, BTO-966 or BTO-967, with (closed symbols) and without (open symbols) rat liver microsome fraction S9. Following the 4 hr exposure to drug and S9, the cells were rinsed and replated at a density of 2×10^5 cells per ml, and counted 3 days later.
To test for either of these possibilities, the compounds, i.e., BTO-956, BTO-964, BTO-966 and BTO-967, were incubated with a microsomal enzyme fraction, referred to as S9.
Human leukemia (HL60) cells were used to evaluate drug metabolism. Exposure to the test article was performed in the presence and absence of S9, prepared from the liver of adult male rats given a single intraperitoneal injection of Arachlor 1254 (500 mg/kg). The S9 consisted of the 9000×G supernatant of liver homogenized in 0.25 M sucrose-100 mM phosphate buffer (pH 7.4) (Molecular Toxicology, Inc.). Cofactors were 1 mM NADP and 5 mM sodium isocitrate. On the day of exposure, cultures of cells, with or without the metabolism mixture, were incubated for 4 hours in RPMI containing 5% FBS and graded doses of BTO956, 964, 966, or 967. The test agents were prepared in serial dilutions from 10 mM stock solutions in DMSO yielding a dose range 100 μM, 50 μM, 25 μM, 10 μM and 5 μM concentrations and a final DMSO concentration of 1%. In each case, cells were maintained at 37° C. under 5 percent CO2 in air. The experiments were conducted in 6-well tissue culture plates (Falcon) with an initial seeding density of 2×10^6 cells per well in 2 ml aliquots. The test compounds were added immediately to the medium in duplicate cultures. Treatment solution was removed by a series of low-speed centrifugations to pellet the cells, followed by removal of the supernatant and resuspension of cells in fresh RPMI containing 10% FBS.

SMILES	IC50 [1] [µM]	IC50 [2] [µM]	IC50 [3] [µM]	IC50 [4] [µM]	IC50 [5] [µM]	IC50 [6] [µM]	effect of metabolism by S9 on activity [7]	toxicity to HL60 cells ([7]; 4 hr exposure (FIG. 2))
COC(=S)c1cc(I)c(Oc2ccc(OC)cc2)c(I)c1 [BTO-967, methyl 3,5-diiodo-4-(4'-methoxyphenoxy)thiobenzoate]	0.8	2	1.5	5.5	1	20	activated to more cytotoxic products	
COc1ccc(Oc2c(I)cc(C=O)cc2I)cc1 [BTO-964, 3,5-Diiodo-4-(4'-methoxyphenoxy)benzadehyde]	1.8	2	4	> 20	2.4	17	more resistant to metabolic degradation	more toxic to HL60 cells than is BTO-956
